Experimental data reported in patent US9936701B2, “Herbicidal compounds” (Syngenta Participations AG, priority 2013, dated 2018).

Experiments:
[1] = tested on: a variety of test species; experiment: Post-emergence herbicidal activity (glasshouse, sprayed after 8 days cultivation, evaluated after 13 days); format: in vivo; set-up: key: 5=total damage to plant; 0=no damage to plant; conditions: rate 1000 g/Ha, scale 0-5
In short: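 Damage was rated 0-5 (5 = total) 13 days after a post-emergence spray of acetone/water (50:50) plus 0.5% Tween 20 formulation. Plants were sprayed at 8 days' growth and kept at 24/16° C, 14 h light, 65% humidity, watered twice daily.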

[2] = tested on: a variety of test species; experiment: Pre-emergence herbicidal activity (glasshouse, sprayed one day after sowing, evaluated after 13 days); format: in vivo; set-up: key: 5=total damage to plant; 0=no damage to plant; conditions: application pre-emergence, rate 1000 g/Ha, scale 0-5
In short: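 Visual 0–5 injury score (5 = total damage) taken 13 days after spraying. Treatment applied one day after sowing, before emergence; glasshouse at 24/16 °C day/night, 14 h photoperiod, 65% humidity.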

Row | Structure (SMILES) | ABUTH (Abutilon theophrasti) damage score, application post-emergence [1] | ALOMY (Alopecurus myosuroides) damage score, application post-emergence [1] | AMARE (Amaranthus retroflexus) damage score, application post-emergence [1] | ECHCG (Echinochloa crus-galli) damage score, application post-emergence [1] | SETFA (Setaria faberi) damage score, application post-emergence [1] | ZEAMX (Zea mays) damage score, application post-emergence [1] | melting point [°C] | Pre-emergence herbicidal damage score, ABUTH [2] | Pre-emergence herbicidal damage score, ALOMY [2] | Pre-emergence herbicidal damage score, AMARE [2] | Pre-emergence herbicidal damage score, ECHCG [2] | Pre-emergence herbicidal damage score, SETFA [2] | Pre-emergence herbicidal damage score, ZEAMX [2]
1 | CC1=C(Cl)C(=O)N(c2cc(C(C)(C)C)on2)C1OC(=O)Oc1ccccc1 (stereo not drawn) [A84] | 5 | 5 | 5 | 5 | 5 | 3 | 113 to 127 | 5 | 4 | 5 | 5 | 5 | 3
2 | CC(=O)OC1C(C)=C(Cl)C(=O)N1c1noc(C(C)(C)C)c1C#N (stereo not drawn) [A94, [1-(5-tert-butyl-4-cyano-isoxazol-3-yl)-4-chloro-3-methyl-5-oxo-2H-pyrrol-2-yl]acetate] | 5 | 5 | 5 | 5 | 5 | 4 | 130 to 132 | 5 | 4 | 5 | 5 | 5 | 3
3 | CC1=C(Cl)C(=O)N(c2noc(C(C)(C)C)c2C#N)C1OC(=O)C(C)(C)C (stereo not drawn) [A95] | 5 | 5 | 5 | 5 | 5 | 3 | 95 to 97 | 4 | 4 | 5 | 5 | 5 | 3
4 | CCCC1=C(Cl)C(=O)N(c2noc(C(C)(C)C)c2C#N)C1OC(=O)CC (stereo not drawn) [A100] | 5 | 5 | 5 | 5 | 5 | 5 | 69 to 71 | 5 | 4 | 5 | 5 | 5 | 3
5 | CC1=C(Cl)C(=O)N(c2cc(C(C)(C)C)on2)C1 [A101] | 5 | 5 | 5 | 5 | 5 | 4 | 138 to 139 | 5 | 4 | 5 | 5 | 4 | 3
6 | CC1=C(Cl)C(=O)N(c2noc(C(C)C)c2C#N)C1 [A103] | 5 | 4 | 5 | 5 | 5 | 3 | 112 to 114 | 5 | 4 | 5 | 5 | 5 | 2
